Test: Examination of molecular state of AC220 in aqueous solution (1H chemical shift displacements, NOESY)
Format: physicochemical
Protocol: The molecular state of AC220 in the aqueous solution was examined. […] The protons of d and e could not be analyzed due to the overlapping with other proton signals.
Furthermore, the Hill coefficient was calculated from the analysis of the ^1H chemical shift displacements: the value was greater than 1, and indicated a network formation. It was confirmed that the addition of methanol to the AC220 aqueous solution inhibited the gel formation, and that the network was formed by intermolecular hydrogen bonding.

CC(C)(C)c1cc(NC(=O)Nc2ccc(-c3cn4c(n3)sc3cc(OCCN5CCOCC5)ccc34)cc2)no1 [AC220, N-(5-tert-butyl-isoxazol-3-yl)-N′-{4-[7-(2-morpholin-4-yl-ethoxy)imidazo[2,1-b][1,3]benzothiazol-2-yl]phenyl}urea]
Hill coefficient (calculated from 1H chemical shift displacements of AC220 aqueous solutions, indicates network formation): greater than 1
Solubility in water (gelation of the aqueous solution with increasing concentration): soluble
